Results from EP1311486B1, “USES OF THALIPORPHINE OR ITS DERIVATIVES IN TREATMENT OF CARDIAC DISEASES AND PREPARATION OF SAME” (Lotus Pharmaceutical Co., Ltd., priority 2000, dated 2002).
Marks after values point to notes of the source that are not given here.

Assays:
inward sodium current = conditions: Su MJ, et al., Eur. J. Pharmacol., 1994; cited from earlier work
atria or ventricles = experiment: Action potential duration in atria or ventricles; conditions: 3-10µM, data not shown
Protocol: Moreover, 3-10µM THP prolongs the action potential duration in the atria or ventricles of both rats and guinea pigs (data not shown).

[1] = tested on: isolated guinea pig hearts; experiment: Reperfusion-induced ventricular fibrillation in isolated guinea pig hearts subjected to global ischemia
Protocol: The isolated guinea pig hearts were ligated by global ischemia. Reperfusion was achieved by releasing the tension applyied to the ligature. Various concentrations of THP were then administered and the ventricular fibrillarion (VF) was recorded. Table 1 Effects of THP on reperfusion-induced ventricular fibrillation in isolated guinea pig hearts subjected to global ischemia
Similarly, 10µM THP can be effective in inhibiting the cardiac arrhythmia induced in the isolated guinea pig heart subjected to global ischemia followed by reperfusion (Table 1). The structure of coronary arteries between rat and guinea pig are not alike, THP, however, can be effective in inhibiting the arrhythmia induced in the isolated heart subjected to ischemia-reperfusion in both animals.

[2] = DPPH radical scavenging, absorbance at 517 nm; type: biochemical; conditions: DPPH 100µM, 25°C, 30 minutes
Protocol: After incubation of various concentrations of THP with 1,1-diphenyl-2-picrylhydrazyl (DPPH, 100µM) at room temperature (25°C) for 30 minutes, decrease in the absorbance for DPPH at 517 nm was measured to determine the dose-response curve of THP in scavenging DPPH radicals.
In the 1,1-diphenyl-2-picrylhydrazyl (DPPH) assay system, the free radical scavenging activity of THP is expressed as IC0.200. The decrease in optical absorbance at 517 nm after addition of THP is monitored following the trapping of the unpaired electron of DPPH. Referring to FIG.4, THP scavenges DPPH in a concentration-dependent manner with IC0.200 of 12.4µmol/L.

[3] = Superoxide anion scavenging, xanthine/xanthine oxidase system; type: biochemical
AV node conduction = experiment: His bundle electrogram of isolated heart, Langendorff perfusion, atrial pacing at 300 ms cycle length; set-up: species or system rats and guinea pigs; conditions: for atrial effective refractory period (AERP): before drug THP 60 ms, quinidine 40 ms; for ventricular effective refractory period (VERP): before drug THP 160 ms, quinidine 180 ms; for AV node effective refractory period (AVNERP): before drug THP 170 ms, quinidine 130 ms; for wenckbach cycle length (WCL): before drug THP 200 ms, quinidine 150 ms
Protocol: The investigation conforms to the Guide for the Care and Use of Laboratory Animals published by the US National Institutes of Health (NIH publication No. 85-23, revised 1996). Adult rats and guinea pigs were killed after hepariniation and anesthetization with urethane (1.25 g/kg i.p.). After isolating the heart, the aorta was perfused with 10µM quinidine and THP, respectively, by Langendorff perfusion. A pair of bipolar electrodes connected with silver wire were placed on the tip of the Triangle of Koch to record the His bundle electrogram. In addition, another pair of bipolar electrodes connected with silver wire were placed on the surface of the right ventricle to record T wave. […] The QT interval, conduction time through the sinoatrial (SA interval), the atrioventricular node (AH interval) and His-purkinje system (HV interval) were recorded, respectively, using electrocardiograph. Similarly, the recovery curve of His-purkinje system (i.e. the relationship of H2V2 and V1H2), atrial and ventricular refractory period and AV node refractory period were also recorded in the same manner. 1 and 2.
The SA, AH, HV intervals and T wave are prolonged in the quinidine-treated heart (FIG. 1). […] In addition, 3, 10 and 30µM THP can prolong the atrial effective refractory period (AERP) from 60 ms to 90, 100 and 120 ms, respectively; the ventricular effective refractory period (VERP) from 160 ms to 160, 170 and 190 ms, respectively; and the AV node effective refractory period (AVNERP) from 170 ms to 170, 200 and 240 ms, respectively. When compared with THP in the same manner, 3,10 and 30µM quinidine can prolong the AERP from 40 ms to 60, 80 and 130 ms; the VERP from 180 ms to 170, 180 and 190 ms; and the AVNERP from 130 ms to 150, 200 and 245 ms, respectively. Further, 3, 10 and 30µM THP can change the wenckbach cycle length (WCL) from 200 ms to 210, 230 and 280 ms, respectively; whereas 3, 10 and 30µM quinidine can change the WCL from 150 ms to 170, 210 and 300 ms, respectively. Both THP and quinidine prolong AERP, VERP and AVNERP, however, only quinidine inhibits conduction in AV node (prolonged AH interval). In contrast, even when the THP concentration raised to 10µM, the conduction in AV node is not inhibited.

COc1cc2c(cc1OC)-c1c(O)c(OC)cc3c1C(C2)N(C)CC3 (single isomer, unassigned; (+)) [THP, (+)-Thaliporphine]
inward sodium current (inward sodium current): inhibit
action potential duration (atria or ventricles; atria or ventricles of guinea pigs): prolongs
action potential duration (atria or ventricles; atria or ventricles of rats): prolongs
%VF ([1]; 3 µM): 25* %
VF (number of hearts) ([1]; 3 µM, N 8): 2
%VF ([1]; 10 µM): 0* %
VF (number of hearts) ([1]; 10 µM, N 6): 0
IC0.200, scavenging of DPPH [2]: 12.4 µmol/L
EC50 [3]: 12.6 µM
atrial effective refractory period (AERP) (AV node conduction; 3µM): 90 ms
ventricular effective refractory period (VERP) (AV node conduction; 3µM): 160 ms
AV node effective refractory period (AVNERP) (AV node conduction; 3µM): 170 ms
wenckbach cycle length (WCL) (AV node conduction; 3µM): 210 ms
AH interval (conduction in AV node) (AV node conduction; 10µM, isolated perfused heart): not inhibited
HV interval (AV node conduction; 10µM, isolated perfused heart): prolonged slightly
SA interval (AV node conduction; 10µM, isolated perfused heart): remains unaffected
atrial effective refractory period (AERP) (AV node conduction; 10µM): 100 ms
ventricular effective refractory period (VERP) (AV node conduction; 10µM): 170 ms
AV node effective refractory period (AVNERP) (AV node conduction; 10µM): 200 ms
wenckbach cycle length (WCL) (AV node conduction; 10µM): 230 ms
atrial effective refractory period (AERP) (AV node conduction; 30µM): 120 ms
ventricular effective refractory period (VERP) (AV node conduction; 30µM): 190 ms
AV node effective refractory period (AVNERP) (AV node conduction; 30µM): 240 ms
wenckbach cycle length (WCL) (AV node conduction; 30µM): 280 ms
